Tests used:
PTPγ = PTPγ (Homo sapiens (Human), UniProt P23470); assay: pNPP hydrolysis enzyme assay, PTPγ; type: biochemical
Description: (§1) Enzyme kinetic assay. PTP activity was assayed using p-nitrophenyl phosphate (pNPP) as a substrate in 3,3-dimethylglutarate buffer (50 mM 3,3-dimethylglutarate, pH 7.0, 1 mM EDTA, 150 mM NaCl, 2 mM DTT, 0.1 mg/mL BSA) at 25° C. The assays were performed in 96-well plates. Normally, to determine the IC50 values, the reaction was initiated by the addition of enzyme (final concentration at 10 nM) to a reaction mixture (0.2 mL) containing 2 mM (Km for the substrate) pNPP with various concentrations of inhibitors. The reaction rate was measured using a SpectraMax Plus 384 Microplate Spectrophotometer (Molecular Devices). To determine the mode of inhibition, the reactions were initiated by the addition of PTP-MEG2 to the reaction mixtures (0.2 mL) containing various concentrations of pNPP with different concentrations of the inhibitor 7. Data were fitted using SigmaPlot Enzyme Kinetics Module (Systat Software, Inc.).

SHP2 = SHP2 (Homo sapiens (Human), UniProt Q06124); assay: pNPP hydrolysis enzyme assay, SHP2; type: biochemical
Chain of SHP2 (Q06124 whole entry, species assumed): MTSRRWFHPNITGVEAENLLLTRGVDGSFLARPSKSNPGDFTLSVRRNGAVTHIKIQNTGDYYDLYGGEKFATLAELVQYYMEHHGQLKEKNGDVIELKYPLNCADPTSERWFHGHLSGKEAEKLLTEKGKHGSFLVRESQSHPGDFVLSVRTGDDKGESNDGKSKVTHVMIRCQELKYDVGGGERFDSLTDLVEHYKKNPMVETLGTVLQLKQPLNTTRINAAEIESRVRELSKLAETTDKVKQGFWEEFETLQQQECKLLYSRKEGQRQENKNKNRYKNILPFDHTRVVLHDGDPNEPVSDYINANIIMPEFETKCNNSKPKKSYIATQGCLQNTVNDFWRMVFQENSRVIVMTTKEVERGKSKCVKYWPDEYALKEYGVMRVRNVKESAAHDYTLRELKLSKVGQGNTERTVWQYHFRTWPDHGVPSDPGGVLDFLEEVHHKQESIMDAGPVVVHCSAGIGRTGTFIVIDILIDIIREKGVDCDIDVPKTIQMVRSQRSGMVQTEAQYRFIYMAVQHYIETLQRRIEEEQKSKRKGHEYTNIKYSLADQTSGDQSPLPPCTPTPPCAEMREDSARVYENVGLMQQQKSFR
Description: as §1

[1] = test system: insulin signaling in mouse primary hepatocytes; assay: Insulin signaling in mouse primary hepatocytes (Western blot); type: cell-based; conditions: for increase of phosphorylated IR (Tyr1162/1163): 1 hour pretreatment, 5 nM insulin 5 minutes, vs DMSO
Description: FIGS. 4A-B depict the ability of PTP-MEG2 inhibitor Compound 7 to sensitize insulin signaling in primary hepatocytes. […] Mouse primary hepatocytes were cultured in 0.5% FBS DMEM medium overnight. Prior to insulin stimulation, the cells were pretreated with Compound 7 or 8 for 1 hour. Then the cells were stimulated with 5 nM insulin for 5 minutes. Insulin signaling was analyzed by Western Blots using phospho-specific antibodies. […] Mouse primary hepatocytes were cultured in DMEM medium plus 0.5% FBS for overnight in the presence or absence of insulin or Compound 7 or 8. Then the cells were harvested for mRNA isolation and gene expression analysis using real-time PCR. The mRNA levels of Foxo1 target genes were normalized with Ppia as an internal control. Data are presented as mean±SEM. *, P<0.05 for Compound 7 vs. DMSO; #, P<0.05 for INS+Compound 7 vs. INS alone.
FIG. 10 depicts the time course of pIR (Tyr 1162/63) level. Primary hepatocyte cells were starved overnight. Prior to insulin stimulation, the cells were preincubated with either vehicle DMSO, Compound 7, or Compound 8 for 1 hour. Then the cells were stimulated with 5 nM Insulin for 0, 5, 30, 60 min. Cell lysates were harvested for Western Blot, using anti-pIR (Tyr 1162/63) antibodies.
Mouse primary hepatocytes were isolated and cultured in DMEM medium with 0.5% FBS for 12 hours, and then were incubated with either vehicle DMSO, Compound 7 (100 nM), or Compound 8 (100 nM) for one hour. Phosphorylated IR, Gsk3β, and Foxo1 and the corresponding total proteins were analyzed by Western blots.
PTP-MEG2 inhibitor Compound 7 augments insulin signaling in cells. Given the excellent potency and selectivity of Compound 7 toward PTP-MEG2, we proceeded to evaluate its effect on PTP-MEG2-dependent signaling inside the cell. To assess the effects of Compound 7 on insulin signaling, we pretreated mouse primary hepatocytes with Compound 7 for 1 hour and then stimulated the cells with 5 nM insulin for 5 minutes. […] Remarkably, the phosphorylated form of IR was increased 50% and 100% at concentrations of 50 nM (1.5×Ki) and 100 nM of Compound 7, respectively (FIG. 4A and FIG. 8). […] Phosphorylation of Akt (Ser473) was increased by 3.1 and 4.5 fold; phosphorylation of GSK-3β (Ser9) was increased by 1.5 and 2.0 fold; and phosphorylation of Foxo1 (Ser253) was increased by 2.1 and 2.9 fold at 100 and 200 nM concentrations of Compound 7, respectively.
Western blot analysis. Cells were homogenized in the lysis buffer (50 mM Hepes, pH 7.5, 150 mM NaCl, 10% Glycerol, 1% Triton X-100, 1.5 mM MgCl2, 1 mM EGTA, 10 μM Sodium Pyrophosphate, 100 mM sodium fluoride and freshly added 100 μM sodium vanadate, 1 mM PMSF, 10 μg/ml Aprotinin, and 10 μg/mL Leupeptin). Protein extracts were resolved on an SDS-PAGE gel and transferred to nitrocellulose membrane. Proteins were probed using the following antibodies: IR(pY1162/63), IR (Santa Cruz Biotechnology), Akt(pS473), Aid, GSK3β(pS9), GSK3β, Foxo1(pS256), Foxo1, Erk1/2(pT202/Y204), Erk1/2 (Cell Signaling Technology). Protein signals were detected by incubation with HRP-conjugated secondary antibodies, followed by ECL detection reagent (Pierce). Western blots were scanned and quantified using the Quantity One software (Bio-Rad).

PTPβ = PTPβ (Homo sapiens, UniProt P23467); assay: pNPP hydrolysis enzyme assay, PTPβ; type: biochemical
Chain of PTPβ (P23467 23-1997 limits assumed): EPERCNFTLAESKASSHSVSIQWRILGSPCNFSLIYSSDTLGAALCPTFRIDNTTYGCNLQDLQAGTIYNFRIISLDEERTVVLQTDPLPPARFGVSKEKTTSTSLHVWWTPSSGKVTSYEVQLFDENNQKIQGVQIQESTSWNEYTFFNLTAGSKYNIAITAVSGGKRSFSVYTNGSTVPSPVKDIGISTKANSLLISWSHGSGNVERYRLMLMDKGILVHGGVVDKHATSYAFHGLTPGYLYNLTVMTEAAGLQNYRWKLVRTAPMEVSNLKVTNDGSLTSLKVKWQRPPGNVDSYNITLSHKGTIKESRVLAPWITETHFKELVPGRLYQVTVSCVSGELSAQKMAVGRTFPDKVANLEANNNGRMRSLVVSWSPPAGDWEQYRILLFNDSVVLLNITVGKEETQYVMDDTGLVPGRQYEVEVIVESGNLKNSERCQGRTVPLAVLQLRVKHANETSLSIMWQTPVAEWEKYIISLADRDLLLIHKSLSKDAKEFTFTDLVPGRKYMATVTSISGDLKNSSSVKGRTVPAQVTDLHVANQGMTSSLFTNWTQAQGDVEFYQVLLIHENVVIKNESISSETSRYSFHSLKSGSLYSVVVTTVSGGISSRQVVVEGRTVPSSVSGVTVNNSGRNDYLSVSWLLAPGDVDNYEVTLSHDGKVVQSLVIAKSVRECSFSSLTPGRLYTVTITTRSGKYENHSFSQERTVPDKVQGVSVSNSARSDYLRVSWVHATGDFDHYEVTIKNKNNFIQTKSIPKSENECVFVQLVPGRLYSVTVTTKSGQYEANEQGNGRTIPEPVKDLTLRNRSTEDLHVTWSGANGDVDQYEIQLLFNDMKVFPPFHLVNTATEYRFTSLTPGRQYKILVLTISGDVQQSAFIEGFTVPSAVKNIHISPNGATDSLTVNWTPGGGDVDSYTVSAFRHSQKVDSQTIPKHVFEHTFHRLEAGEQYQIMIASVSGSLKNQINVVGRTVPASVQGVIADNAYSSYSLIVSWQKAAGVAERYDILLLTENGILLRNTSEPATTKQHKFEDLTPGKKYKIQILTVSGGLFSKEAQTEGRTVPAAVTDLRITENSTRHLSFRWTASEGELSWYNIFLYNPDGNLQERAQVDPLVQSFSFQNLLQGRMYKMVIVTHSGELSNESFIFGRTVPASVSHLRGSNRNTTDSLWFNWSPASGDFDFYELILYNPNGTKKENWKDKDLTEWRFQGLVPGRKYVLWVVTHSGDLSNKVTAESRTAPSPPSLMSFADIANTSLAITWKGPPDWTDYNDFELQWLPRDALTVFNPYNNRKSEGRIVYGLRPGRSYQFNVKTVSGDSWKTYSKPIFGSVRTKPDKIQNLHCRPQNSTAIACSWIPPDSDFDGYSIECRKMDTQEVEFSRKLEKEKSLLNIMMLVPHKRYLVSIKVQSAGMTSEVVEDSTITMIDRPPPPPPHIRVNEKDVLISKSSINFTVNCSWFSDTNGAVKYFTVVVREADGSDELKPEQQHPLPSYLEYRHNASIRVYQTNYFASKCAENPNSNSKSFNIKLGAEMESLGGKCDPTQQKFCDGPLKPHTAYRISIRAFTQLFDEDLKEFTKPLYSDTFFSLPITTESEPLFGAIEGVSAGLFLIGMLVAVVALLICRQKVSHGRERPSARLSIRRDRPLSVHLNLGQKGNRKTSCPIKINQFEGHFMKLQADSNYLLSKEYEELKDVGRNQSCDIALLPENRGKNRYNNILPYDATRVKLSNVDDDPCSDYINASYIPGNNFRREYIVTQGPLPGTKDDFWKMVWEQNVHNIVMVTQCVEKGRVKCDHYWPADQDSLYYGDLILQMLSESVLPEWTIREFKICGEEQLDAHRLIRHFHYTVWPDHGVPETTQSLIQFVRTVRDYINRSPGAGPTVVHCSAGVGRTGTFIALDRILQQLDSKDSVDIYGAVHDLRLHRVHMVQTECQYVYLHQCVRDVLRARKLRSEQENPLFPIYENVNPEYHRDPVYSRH
Description: as §1

VHX = VHX (Homo sapiens (Human), UniProt Q9NRW4); assay: pNPP hydrolysis enzyme assay, VHX; type: biochemical
Chain of VHX (Q9NRW4 whole entry): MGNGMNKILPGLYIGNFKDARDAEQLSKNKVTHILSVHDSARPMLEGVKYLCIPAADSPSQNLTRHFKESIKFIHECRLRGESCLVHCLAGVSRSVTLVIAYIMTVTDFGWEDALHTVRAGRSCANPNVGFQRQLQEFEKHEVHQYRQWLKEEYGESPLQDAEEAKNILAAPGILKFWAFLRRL
Description: as §1

HePTP = HePTP (Homo sapiens (Human), UniProt P35236); assay: pNPP hydrolysis enzyme assay, HePTP; type: biochemical
Chain of HePTP (P35236 whole entry, species assumed): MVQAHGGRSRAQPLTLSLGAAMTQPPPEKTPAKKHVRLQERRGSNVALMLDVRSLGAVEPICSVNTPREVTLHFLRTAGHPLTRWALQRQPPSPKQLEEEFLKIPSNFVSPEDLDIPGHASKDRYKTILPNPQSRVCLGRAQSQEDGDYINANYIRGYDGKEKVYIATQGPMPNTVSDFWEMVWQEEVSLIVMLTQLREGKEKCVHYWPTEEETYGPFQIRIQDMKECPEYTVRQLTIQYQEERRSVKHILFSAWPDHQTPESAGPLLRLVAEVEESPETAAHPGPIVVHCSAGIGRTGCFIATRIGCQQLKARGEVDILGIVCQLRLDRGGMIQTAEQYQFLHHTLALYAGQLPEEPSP
Description: as §1

Chain of PTPγ (P23470 20-1445): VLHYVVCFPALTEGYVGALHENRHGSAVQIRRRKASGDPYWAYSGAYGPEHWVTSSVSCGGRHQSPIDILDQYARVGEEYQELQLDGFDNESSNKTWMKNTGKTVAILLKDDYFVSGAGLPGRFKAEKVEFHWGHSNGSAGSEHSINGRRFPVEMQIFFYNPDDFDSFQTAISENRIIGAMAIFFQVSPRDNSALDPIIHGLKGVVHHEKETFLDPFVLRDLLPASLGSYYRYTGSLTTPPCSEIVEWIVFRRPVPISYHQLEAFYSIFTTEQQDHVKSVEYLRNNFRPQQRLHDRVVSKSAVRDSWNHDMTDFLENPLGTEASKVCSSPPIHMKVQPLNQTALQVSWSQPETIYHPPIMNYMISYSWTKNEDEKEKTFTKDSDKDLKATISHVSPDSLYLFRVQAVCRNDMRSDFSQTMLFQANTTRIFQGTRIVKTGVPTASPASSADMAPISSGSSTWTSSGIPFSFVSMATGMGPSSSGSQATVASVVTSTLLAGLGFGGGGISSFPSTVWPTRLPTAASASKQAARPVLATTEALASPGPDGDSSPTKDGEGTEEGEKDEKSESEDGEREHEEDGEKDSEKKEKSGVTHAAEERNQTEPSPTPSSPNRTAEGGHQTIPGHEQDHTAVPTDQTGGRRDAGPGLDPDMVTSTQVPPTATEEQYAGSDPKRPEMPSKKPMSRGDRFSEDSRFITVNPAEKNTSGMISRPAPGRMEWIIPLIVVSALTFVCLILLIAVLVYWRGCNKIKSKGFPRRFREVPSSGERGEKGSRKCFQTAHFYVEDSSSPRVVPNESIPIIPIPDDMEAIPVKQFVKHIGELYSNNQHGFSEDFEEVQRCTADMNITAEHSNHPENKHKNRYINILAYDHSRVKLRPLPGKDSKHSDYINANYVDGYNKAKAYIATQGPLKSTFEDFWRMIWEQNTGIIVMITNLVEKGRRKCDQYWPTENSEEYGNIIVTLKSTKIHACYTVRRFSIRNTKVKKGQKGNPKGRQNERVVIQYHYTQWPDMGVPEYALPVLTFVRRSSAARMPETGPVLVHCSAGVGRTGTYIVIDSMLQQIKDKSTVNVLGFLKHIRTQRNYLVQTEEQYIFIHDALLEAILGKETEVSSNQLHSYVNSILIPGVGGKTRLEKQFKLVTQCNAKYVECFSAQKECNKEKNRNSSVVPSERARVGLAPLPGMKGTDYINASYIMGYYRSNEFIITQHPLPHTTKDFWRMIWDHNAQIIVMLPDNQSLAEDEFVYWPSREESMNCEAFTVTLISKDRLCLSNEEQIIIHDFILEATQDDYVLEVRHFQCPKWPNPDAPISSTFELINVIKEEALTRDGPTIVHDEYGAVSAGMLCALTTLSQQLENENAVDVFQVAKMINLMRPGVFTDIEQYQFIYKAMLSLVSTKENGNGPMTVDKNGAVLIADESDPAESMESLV

COc1cc(CC(=O)NCC(NC(=O)C(CCCNC(=O)c2cccc(I)c2)NC(=O)C(Cc2ccc(C(F)(F)P(=O)(O)O)cc2)NC(=O)c2ccc(C)c(Br)c2)C(N)=O)ccc1O (stereo not shown) [Compound 7]
IC50 (PTPγ): > 10000 nM | IC50 (SHP2): > 10000 nM | increase of phosphorylated IR (Tyr1162/1163) ([1]; 50 nM compound): 50% | increase of Akt (Ser473) phosphorylation ([1]; 100 nM compound, 5 nM insulin): 3.1 fold | increase of Foxo1 (Ser253) phosphorylation ([1]; 100 nM compound, 5 nM insulin): 2.1 fold | increase of GSK-3β (Ser9) phosphorylation ([1]; 100 nM compound, 5 nM insulin): 1.5 fold | increase of phosphorylated IR (Tyr1162/1163) ([1]; 100 nM compound): 100% | insulin signaling pathway under basal conditions ([1]; 100 nM, one hour, no insulin): enhanced | increase of Akt (Ser473) phosphorylation ([1]; 200 nM compound, 5 nM insulin): 4.5 fold | increase of Foxo1 (Ser253) phosphorylation ([1]; 200 nM compound, 5 nM insulin): 2.9 fold | increase of GSK-3β (Ser9) phosphorylation ([1]; 200 nM compound, 5 nM insulin): 2.0 fold | Erk1/2 activation ([1]; insulin-stimulated hepatocytes): strongly enhanced | increase of basal phosphorylation of Foxo1 ([1]; no insulin, 100 nM, 1 hour): 2.2 fold | increase of basal phosphorylation of GSK-3β ([1]; no insulin, 100 nM, 1 hour): 2.0 fold | increase of basal phosphorylation of IR ([1]; no insulin, 100 nM, 1 hour): 2.1 fold | duration of potentiation of insulin stimulated IR phosphorylation ([1]; time course 0, 5, 30, 60 min, 5 nM insulin): at least 1 hour | IC50 (PTPβ): > 10000 nM | IC50 (VHX): > 10000 nM | IC50 (HePTP): > 10000 nM

From patent US9340574B2, “Inhibitors of protein tyrosine phosphatases” (Indiana University Research and Technology Corporation, priority 2012, dated 2016)
